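A five-concentration, 48-hour dose response in 96-well plates underlies each endpoint, interpolated linearly between surrounding concentrations. GI50 marks 50% less growth.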 Calls of active or inactive are those of the source. Cut-off read from the data, not from the text of the source: active = GI50 up to about 1.1 µM and inactive = higher.
Key:
Test in all cases: NCI anticancer screen, dose series, 48 h
RXF 631 = test system: RXF 631
HOP-18 = test system: HOP-18
DMS-114 = test system: DMS-114
KM-20L2 = test system: KM-20L2
LXFL 529 = test system: LXFL 529
XF498 = test system: XF498
DMS-273 = test system: DMS-273
SNB-78 = test system: SNB-78
BT-549 = test system: BT-549

Measured: GI50

CCC1(CC)C(=O)NC(=S)N=C1N
inactive: RXF 631 > 100 µM | HOP-18 > 100 µM | DMS-114 > 100 µM | KM-20L2 > 100 µM | LXFL 529 > 100 µM | XF498 > 100 µM | DMS-273 > 100 µM

O=c1[nH]c(=O)n([C@@H]2C[C@H](CO)[C@H](O)C2)cc1/C=C/Br
inactive: SNB-78 > 100 µM | RXF 631 > 100 µM | HOP-18 > 100 µM | DMS-114 > 100 µM | KM-20L2 > 100 µM | LXFL 529 > 100 µM | DMS-273 > 100 µM

COc1cc2c(cc1OC)[C@@H]([C@H](O)c1ccccc1)NCC2
inactive: SNB-78 > 100 µM | RXF 631 > 97.3 µM | HOP-18 > 100 µM | DMS-114 > 100 µM | KM-20L2 > 100 µM | LXFL 529 > 100 µM | XF498 > 100 µM | DMS-273 > 100 µM

Cc1ccc(NC(=O)CC/C(CC(=O)C(C)(C)C)=N\Nc2ccc([N+](=O)[O-])cc2[N+](=O)[O-])cc1C
inactive: SNB-78 > 100 µM | RXF 631 > 100 µM | HOP-18 > 100 µM | DMS-114 30 µM | KM-20L2 > 100 µM | LXFL 529 40.9 µM

CC(C)[C@H](COC(C)(C)C)/N=C/N1CSc2ccccc21
inactive: SNB-78 30 µM | RXF 631 27.4 µM | DMS-114 21.8 µM | KM-20L2 27.8 µM | LXFL 529 34.7 µM | XF498 16.9 µM | DMS-273 16.8 µM

CCCCCCCCCCCCC(Br)C(C)=O (configuration not stated)
inactive: SNB-78 > 100 µM | RXF 631 > 100 µM | HOP-18 > 100 µM | DMS-114 > 100 µM | KM-20L2 > 100 µM | LXFL 529 > 100 µM | XF498 > 100 µM | DMS-273 > 100 µM

COc1ccc(C(=O)Nc2ccc(S(=O)(=O)NCC(=O)O)cc2)cc1
inactive: RXF 631 > 100 µM | HOP-18 > 100 µM | KM-20L2 > 100 µM | LXFL 529 > 100 µM | XF498 > 100 µM | DMS-273 > 100 µM

Cc1ccc(/C=C2\CNC/C(=C\c3ccc(C)cc3)C2=O)cc1
inactive: SNB-78 > 100 µM | HOP-18 > 10 µM | DMS-114 1.86 µM | KM-20L2 1.32 µM | LXFL 529 1.28 µM | BT-549 2.24 µM | XF498 2.59 µM | DMS-273 1.24 µM

CCNC(=O)COc1ccc(Cl)cc1Cl
inactive: SNB-78 > 100 µM | RXF 631 > 100 µM | HOP-18 > 100 µM | DMS-114 > 100 µM | KM-20L2 > 100 µM | LXFL 529 > 100 µM | DMS-273 > 100 µM

COC(=O)C(=O)C(C(=O)C(=O)Nc1ccc(C)cc1C)c1nc2ccccc2nc1O (configuration not stated)
inactive: SNB-78 41.6 µM | RXF 631 46.7 µM | HOP-18 36 µM | KM-20L2 > 100 µM | LXFL 529 43.9 µM | XF498 58.3 µM

Cc1ccccc1NC(=O)/C(=N\NC(N)=S)C(C#N)c1ccccc1 (configuration not stated)
inactive: SNB-78 > 100 µM | RXF 631 > 100 µM | HOP-18 > 100 µM | DMS-114 72.4 µM | KM-20L2 > 100 µM | LXFL 529 > 100 µM | DMS-273 > 100 µM

From ChEMBL document CHEMBL1201862, “PubChem BioAssay data set” (2004)
